# Laboratory results taken from patent US9623000B2, “Compositions and methods for treating inflammatory disorders” (priority 2008, dated 2017).
# Several values for one entry are separate records, joined by “and”; a condition that tells them apart may be missing. Identical values can stand only once. Marks after values point to notes of the source that are not given here.
# Tests used:
# Type in all cases: in vivo, Mice/Balb/c
# [1] = test system: croton oil induced ear edema; assay: Croton oil induced ear swelling, 3 hours post sensitization (Example 1); settings: Hydrocortisone 600 nmol/ear; for ear swelling (difference between the inflamed and intact ear thickness) / % of Ear Thickness Inhibition (inhibition of ear swelling/edema vs Vehicle): 3 hours post croton oil; for ear swelling (difference between the inflamed and intact ear thickness) / Mean Group Ear Swelling (mm) 3 Hours Post Croton Oil MEAN: PEA, CBD 5 mg/ml; for ear swelling (difference between the inflamed and intact ear thickness): MEAN±SEM; for % of Ear Thickness Inhibition (inhibition of ear swelling/edema vs Vehicle) / Mean Group Ear Swelling (mm) 3 Hours Post Croton Oil MEAN: topical 1 hour prior to and 2 hours post sensitization; for % of Ear Thickness Inhibition (inhibition of ear swelling/edema vs Vehicle): 2 mg/ml or 5 mg/ml (PEA, CBD); for Mean Group Ear Swelling (mm) 3 Hours Post Croton Oil MEAN: Amitriptyline, Topiramate, Moclobimide 2 mg/ml
# Method: A study was undertaken in order to evaluate the effect of topical preparations of various test items (TI) and TI combined with Croton oil on ear swelling. Ear thickness was measured before croton oil induced ear swelling and 3 hours post ear edema induction. The various TIs were applied topically 1 hour prior to ear edema sensitization and 2 hours post ear edema sensitization. The difference in ear thickness of the intact ear was subtracted from the ear thickness of the inflamed ear. This value is defined as “ear swelling”.
# Species/Strain: Mice/Balb/c
# Prior to sensitization animals were anesthetized. Ear thickness was measured 24 hours prior to croton oil sensitization; this measurement served as a baseline. On sensitization day, the animals were anesthetized using Ketamine and Xylazine formulation. Then, the animals were administered with TI topically. One hour later the animals were introduced to croton oil sensitization (50 μL). Two hours post croton oil sensitization the animals were administered with TI again. Three hours post croton oil sensitization the ear thickness of the animals were measured again.
# TIs were administered twice, the first dose was 1 hour prior to croton oil sensitization and the second time was 2 hours post croton oil sensitization. All TIs were dissolved in 10% Ethanol and were applied topically on the surface of the sensitized ear.
# Determination of individual body weights of animals was made one day before sensitization phase. A single person was responsible for ear thickness measurement throughout the entire study. The ear thickness of both left and right ears was measured using analogue calipers (Instrumentation 0.01 mm L-01) on 2 occasions: 24 hours prior to croton oil sensitization, and 3 hours post croton oil sensitization.
# All data are presented in MEAN±SEM. T-test, two tailed, unpaired was applied to all data. P value was considered significant if p<0.05.
# Ear thickness was measured before Croton oil induced ear sensitization (baseline) and 3 hours post ear edema induction. Treatment with various TI was applied topically 1 hour prior to sensitization and 2 hours post induction. The difference in ear thickness of the intact ear was subtracted from the ear thickness measured of the inflamed ear. This value was referred to as ear swelling.
# [2] = test system: croton oil induced ear edema; assay: Croton oil induced ear edema, 6 hours post sensitization (Example 2)
# Description: A study was undertaken in order to evaluate the effect of topical preparations of Hydrocortisone, Betamethasone and PEA at various concentrations (as single agents and in various combinations) on ear edema in mice. […] The difference in ear thickness of the intact ear was subtracted from the ear thickness of the inflamed ear. This value is defined as “ear swelling”.
# [3] = test system: croton oil induced ear edema; assay: Croton oil induced ear edema, 6 and 9 hours post sensitization (Example 3); settings: PEA 1%; for activity in inhibiting ear swelling vs. Vehicle: Betamethasone 4 μg/25 μl per ear; for Mean Left Ear Delta Thickness, Delta + 9 h vs baseline / Mean Left Ear Delta thickness, Delta + 6 h vs baseline / Mean Left Ear Thickness (mm) Day 0 (6 h post sensitization) / Mean Left Ear Thickness (mm) Day 0 (9 h post sensitization): Betamethasone EDmax 4 μg/25 μl per ear; for Mean Left Ear Thickness (mm) Day 0 (6 h post sensitization) / Mean Left Ear Thickness (mm) Day 0 (9 h post sensitization): topical 25 μl per ear prior to sensitization
# Method: A study was undertaken in order to determine the effect of topical application of a combined preparation of Betamethasone and PEA on ear edema in mice. Ear thickness was measured before croton oil induced ear swelling and 6 and 9 hours post ear edema induction. […]
# The difference in ear thickness of the intact ear was subtracted from the ear thickness of the inflamed ear. This value is defined as “ear swelling”.
# [4] = steroid alone at ED50: Hydrocortisone 55 μg/25 μl per ear, Betamethasone 1 μg/25 μl per ear
# [5] = steroid alone at EDmax: Hydrocortisone 200 μg/25 μl per ear, Betamethasone 4 μg/25 μl per ear
# [6] = topical, steroid alone at calculated ED50: Hydrocortisone 55 μg/25 μl per ear, Betamethasone 1 μg/25 μl per ear
# [7] = topical, steroid alone at calculated EDmax: Hydrocortisone 200 μg/25 μl per ear, Betamethasone 4 μg/25 μl per ear
smiles,measurement,setting,value
"C=C(C)[C@@H]1CCC(C)=C[C@H]1c1c(O)cc(CCCCC)cc1O [CBD, cannabidiol]",ear swelling (difference between the inflamed and intact ear thickness),[1],0.020±0.010 mm
same,% of Ear Thickness Inhibition (inhibition of ear swelling/edema vs Vehicle),[1],72%
same,Mean Group Ear Swelling (mm) 3 Hours Post Croton Oil MEAN,[1],0.240* mm
"O=C(NCCN1CCOCC1)c1ccc(Cl)cc1 [Moclobimide, moclobemide]",% of Ear Thickness Inhibition (inhibition of ear swelling/edema vs Vehicle),[1],52%
same,Mean Group Ear Swelling (mm) 3 Hours Post Croton Oil MEAN,[1],0.265 mm
"CN(C)CCC=C1c2ccccc2CCc2ccccc21 [Amitriptyline, amitriptyline]",% of Ear Thickness Inhibition (inhibition of ear swelling/edema vs Vehicle),[1],62%
same,Mean Group Ear Swelling (mm) 3 Hours Post Croton Oil MEAN,[1],0.248* mm
"CCCCCCCCCCCCCCCC(=O)NCCO [PEA, N-(2-hydroxyethyl)hexadecanamide]",ear swelling (difference between the inflamed and intact ear thickness),[1],0.035±0.012 mm
same,% of Ear Thickness Inhibition (inhibition of ear swelling/edema vs Vehicle),[1],52%
same,Mean Group Ear Swelling (mm) 3 Hours Post Croton Oil MEAN,[1],0.268 mm
same,"Mean Left Ear Delta thickness, Delta + 6 h vs baseline",[2]; PEA 0.5% (alone or + Hydrocortisone/Betamethasone ED50),0.135
same,"Mean Left Ear Delta thickness, Delta + 6 h vs baseline",[2]; PEA 1% (alone or + Hydrocortisone/Betamethasone ED50),0.031*
same,reducing ear thickness vs. Vehicle,"[2]; PEA 1% topical, 6 hours post sensitization",approximately 50%
same,"Mean Left Ear Delta thickness, Delta + 6 h vs baseline",[2]; PEA 5% (alone or + Hydrocortisone/Betamethasone ED50),0.062
same,Left Ear Thickness (mm) Study Day 0 (6 H post sensitization),"[2]; topical 25 μl per ear 0.5 hour prior to sensitization, PEA 0.5% (alone or + Hydrocortisone 55 μg/25 μl or Betamethasone 1 μg/25 μl, ED50)",0.38 mm
same,Left Ear Thickness (mm) Study Day 0 (6 H post sensitization),"[2]; topical 25 μl per ear 0.5 hour prior to sensitization, PEA 1% (alone or + Hydrocortisone 55 μg/25 μl or Betamethasone 1 μg/25 μl, ED50)",0.29±0.004 mm and 0.29 ** mm
same,Left Ear Thickness (mm) Study Day 0 (6 H post sensitization),"[2]; topical 25 μl per ear 0.5 hour prior to sensitization, PEA 5% (alone or + Hydrocortisone 55 μg/25 μl or Betamethasone 1 μg/25 μl, ED50)",0.32 mm
same,activity in inhibiting ear swelling vs. Vehicle,[3]; 6 hours post sensitization,significant activity
same,activity in inhibiting ear swelling vs. Vehicle,[3]; 9 hours post sensitization,not active
same,"Mean Left Ear Delta Thickness, Delta + 9 h vs baseline",[3],0.147
same,"Mean Left Ear Delta thickness, Delta + 6 h vs baseline",[3],0.056*
same,Mean Left Ear Thickness (mm) Day 0 (6 h post sensitization),[3],0.30** mm
same,Mean Left Ear Thickness (mm) Day 0 (9 h post sensitization),[3],0.39 mm
"CC1(C)O[C@@H]2[C@@H](CO[C@@]3(COS(N)(=O)=O)OC(C)(C)O[C@@H]23)O1 [Topiramate, topiramate]",% of Ear Thickness Inhibition (inhibition of ear swelling/edema vs Vehicle),[1],63%
same,Mean Group Ear Swelling (mm) 3 Hours Post Croton Oil MEAN,[1],0.243 mm
"C[C@H]1C[C@H]2[C@@H]3CCC4=CC(=O)C=C[C@]4(C)[C@@]3(F)[C@@H](O)C[C@]2(C)[C@@]1(O)C(=O)CO [Betamethasone, betamethasone]","Mean Left Ear Delta thickness, Delta + 6 h vs baseline",[2]; [4],0.043
same,"Mean Left Ear Delta thickness, Delta + 6 h vs baseline",[2]; [5],0.031*
same,Left Ear Thickness (mm) Study Day 0 (6 H post sensitization),[2]; [6],0.30±0.008 mm
same,Left Ear Thickness (mm) Study Day 0 (6 H post sensitization),"[2]; topical, steroid alone at calculated ED50: Hydrocortisone 55 μg/25 μl per ear, Betamethasone 1 μg/25 μl per ear, listed as Beta.",0.30 * mm
same,Left Ear Thickness (mm) Study Day 0 (6 H post sensitization),[2]; [7],0.29±0.005 mm
same,Left Ear Thickness (mm) Study Day 0 (6 H post sensitization),"[2]; topical, steroid alone at calculated EDmax: Hydrocortisone 200 μg/25 μl per ear, Betamethasone 4 μg/25 μl per ear, listed as Beta",0.29 ** mm
same,activity in inhibiting ear swelling vs. Vehicle,[3]; 6 hours post sensitization,active
same,activity in inhibiting ear swelling vs. Vehicle,[3]; 9 hours post sensitization,not active
same,"Mean Left Ear Delta Thickness, Delta + 9 h vs baseline",[3],0.092#
same,"Mean Left Ear Delta thickness, Delta + 6 h vs baseline",[3],0.036**
same,Mean Left Ear Thickness (mm) Day 0 (6 h post sensitization),[3],0.27*** mm
same,Mean Left Ear Thickness (mm) Day 0 (9 h post sensitization),[3],0.33 mm
"C[C@]12CCC(=O)C=C1CC[C@@H]1[C@@H]2[C@@H](O)C[C@@]2(C)[C@H]1CC[C@]2(O)C(=O)CO [Hydrocortisone, hydrocortisone]",ear swelling (difference between the inflamed and intact ear thickness),[1],0.043±0.003 mm
same,% of Ear Thickness Inhibition (inhibition of ear swelling/edema vs Vehicle),[1],40%
same,Mean Group Ear Swelling (mm) 3 Hours Post Croton Oil MEAN,[1],0.243 mm
same,activity compared to vehicle in reducing ear thickness / ear edema,"[2]; 6 hours post sensitization, Hydrocortisone 55 and 200 μg/25 μl per ear, Betamethasone 1 and 4 μg/25 μl per ear (calculated ED50 and EDmax)",not active
same,"Mean Left Ear Delta thickness, Delta + 6 h vs baseline",[2]; [4],0.060
same,"Mean Left Ear Delta thickness, Delta + 6 h vs baseline",[2]; [5],0.054
same,Left Ear Thickness (mm) Study Day 0 (6 H post sensitization),[2]; [6],0.32 mm
same,Left Ear Thickness (mm) Study Day 0 (6 H post sensitization),[2]; [7],0.31 mm
